The results in this text go back to PubChem BioAssay AID1918930 (Molecular Pharmacology Branch, DTP, NCI, 2023).

What is called viability, T/C is the result in the treated group divided by that in the control group, in per cent. One may read the IC50 as the point on the concentration scale where inhibition reaches its midpoint.

Where “and” joins values, the source holds several entries; their conditions need not be identical. Equal values may be shown once.

In this assay the test system is 233499-124-R-J3-PDC complex spheroid viability, % test/control. Put plainly: Anticancer human tumor 233499-124-R-J3-PDC patient-derived colon adenocarcinoma cell line growth inhibition. The conditions noted are these: for viability, T/C: stronger effect = lower value. An excerpt: Multicellular complex tumor spheroid response to LSD1 Inhibitor Iadademstat in combination with a variety of drugs and investigational agents in selected tumor cell lines
The current study was undertaken to assess response to LSD1 inhibitors in combination with standard-of-care drugs and investigational agents in solid tumor complex spheroid models as well as in the K-562 leukemia. Complex spheroids include a stromal component modeled by human endothelial cells (HUVEC) and fibroblasts modeled by human mesenchymal stem cells (MSCs). The concentration ranges selected for each drug and investigational agent were based upon clinically achievable concentrations if the clinical Cmax of the agent was known.
Compounds. The drugs and investigational agents used in this study are listed on Table 1. All of the agents used, including staurosporine (NSC755774) and gemcitabine (NSC613327), were obtained from the Developmental Therapeutics Program, NCI. FDA-approved anticancer drugs are available from the NCI at http://dtp.nci.nih.gov/branches/dscb/oncology_drugset_explanation.html. Drugs and investigational agents were >95% pure by proton nuclear magnetic resonance (NMR) and liquid chromatography/mass spectrometry (LC/MS). Stock solutions were prepared at 400x in DMSO, stored at -70 degrees C, and diluted in fresh medium prior to their use. The final concentration of DMSO in cell culture wells never exceeded 0.25% (v/v). The FDA-approved anticancer drug set is available from the Developmental Therapeutics Program at https://dtp.cancer.gov/organization/dscb/obtaining/available_plates.htm. All drugs and investigational agents were tested over a range starting from a high concentration at or near the clinical Cmax and decreasing in half-log increments. If the clinical Cmax for an agent had not been determined, the highest concentration tested was 10 microM.
Cell Lines. The patient-derived cancer cell (PDC) lines: 292921-168-R-J2-PDC, K24384-001-R-PDC, and 521955-158-R2-J5-PDC pancreatic carcinomas, 556581-035-R-J1 ovarian carcinoma, 324938-238-R-J1-PDC, 855422-203-R-J1-PDC and 883617-216-R-J1-PDC urothelial bladder carcinomas, 743489-274-T-PDC renal cell carcinoma, 138582-R-J1 Merkel cell tumor, K60290-347-R-J1 and K57222-313-R-J1-PDC glioblastomas, 653999-131-R-J2-PDC, LG0703-F948-PDC, and 349418-098-R-PDC non-small cell lung carcinomas, 885512-296-R-J2-PDC, 171881-019-R-J1-PDC breast carcinomas and 186277-243-T-J2-PDC and 233499-124-R-J2-PDC colon carcinomas were obtained from the NCI Patient-Derived Models Repository (PDMR, https://pdmr.cancer.gov). The established cell lines NCI/ADR-RES (RRID:CVCL_14520 and OVCAR-5 (RRID:CVCL_1628) ovarian carcinomas, 786-O (RRID:CVCL_1051) and A498 (RRID:CVCL_A498) renal cell carcinoma, NCI-H211 (ATCC, cat. CRL-5824; RRID:CVCL_1529), NCI-H196 (ATCC, cat. CRL-5823, RRID:CVCL_1509), SW 1271 (ATCC, cat. CRL-2177, RRID:CVCL_1716) and NCI-H1876 (ATCC, cat. CRL-5902, RRID:CVCL_1503) small cell lung carcinomas, MDA-MB-231 (RRID:CVCL_0062) and MDA-MB-468 (RRID:CVCL_0419)breast carcinomas (10-12). Pooled donor human umbilical vein endothelial cells (HUVEC, Lonza, cat. CC-2519) and human mesenchymal stem cells (hMSC, Lonza, cat. PT-2501) were purchased from Lonza (Walkersville, MD).
Cell Culture. All cells were maintained in an incubator at 37 degrees C and 5% CO2 with 95% humidity. The PDC lines were cultured according to standard operating procedures established by the NCI PDMR (https://pdmr.cancer.gov). Briefly all PDCs were thawed and cultured in Matrigel-coated flasks prepared with a working solution of 1X Ham's F-12 nutrient mix, without supplementation (Invitrogen, Waltham, MA, cat. 11765054), 100 U/mL penicillin-streptomycin (Invitrogen, cat. 15140122), and 2.5% Matrigel (Corning Inc., Corning, NY, cat. 354248) for the first three passages. […]
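Further: spheroids exposed to agents for one week before readout.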

With `CC[C@@]1(O)C(=O)OCc2c1cc1n(c2=O)Cc2cc3c(CN(C)C)c(O)ccc3nc2-1`, the viability, T/C (compound 0.000316 µM) was 79.7% and 94.3%; the viability, T/C (compound 0.001 µM) is 70% and 85.8%; the viability, T/C (compound 0.00316 µM) was 63.5% and 72.9%; the viability, T/C (compound 0.01 µM) was 51.6% and 62.8%; the viability, T/C (compound 0.0316 µM) is 70% and 69.2%; the viability, T/C (compound 0.1 µM) is 94.3% and 109%. In addition, the IC50 (curve of compound) is greater than 0.1 µM.
Consider `Nc1ncn(C2CC(O)C(CO)S2)c(=O)n1` (configuration not stated), for which the viability, T/C is, setting by setting: (compound 0.000949 µM) 92.5% and 83.6%; (compound 0.003 µM) 96% and 87.5%; (compound 0.00949 µM) 119% and 95.5%; (compound 0.03 µM) 100% and 94%; (compound 0.0949 µM) 59.1% and 62.5%; (compound 0.3 µM) 28.4% and 35%. In addition, the IC50 (curve of compound) is 0.133 µM and 0.16 µM.
On to `CC(C)CC(NC(=O)C(Cc1ccccc1)NC(=O)c1cnccn1)B(O)O` (configuration not stated) + NC1CC1c1ccc(-c2cccc(O)c2)cc1, for which the IC50 is, setting by setting: (curve of first compound, second compound 0.1 µM) 0.000491 µM; (curve of first compound, second compound 0.316 µM) 0.000445 µM; (curve of first compound, second compound 1 µM) 0.000493 µM; (curve of first compound, second compound 3.16 µM) 0.000528 µM; (curve of first compound, second compound 10 µM) 0.000389 µM. For the same compound, the viability, T/C (second compound 0.1 µM, first compound 0.000316 µM) is 80.7%; the viability, T/C (second compound 0.1 µM, first compound 0.001 µM) is 0.42%; the viability, T/C (second compound 0.1 µM, first compound 0.00316 µM) was 0.06%; the viability, T/C (second compound 0.1 µM, first compound 0.01 µM) was 0.06%; the viability, T/C (second compound 0.1 µM, first compound 0.0316 µM) was 0.07%; the viability, T/C (second compound 0.1 µM, first compound 0.1 µM) was 0.23%. In addition, the viability, T/C was 71% (second compound 0.316 µM, first compound 0.000316 µM); 0.32% (second compound 0.316 µM, first compound 0.001 µM); 0.06% (second compound 0.316 µM, first compound 0.00316 µM); 0.23% (second compound 0.316 µM, first compound 0.01 µM); 0.05% (second compound 0.316 µM, first compound 0.0316 µM); 0.21% (second compound 0.316 µM, first compound 0.1 µM). For the same compound, the viability, T/C by setting is: (second compound 1 µM, first compound 0.000316 µM) 80.7%; (second compound 1 µM, first compound 0.001 µM) 0.91%; (second compound 1 µM, first compound 0.00316 µM) 0.05%; (second compound 1 µM, first compound 0.01 µM) 0.04%; (second compound 1 µM, first compound 0.0316 µM) 0.06%; (second compound 1 µM, first compound 0.1 µM) 0.2%. In addition, the viability, T/C was 89.8% (second compound 3.16 µM, first compound 0.000316 µM); 0.32% (second compound 3.16 µM, first compound 0.001 µM); 0.08% (second compound 3.16 µM, first compound 0.00316 µM); 0.06% (second compound 3.16 µM, first compound 0.01 µM); 0.07% (second compound 3.16 µM, first compound 0.0316 µM); 0.23% (second compound 3.16 µM, first compound 0.1 µM). The viability, T/C is, setting by setting: (second compound 10 µM, first compound 0.000316 µM) 60.1%; (second compound 10 µM, first compound 0.001 µM) 3.72%; (second compound 10 µM, first compound 0.00316 µM) 0.8%; (second compound 10 µM, first compound 0.01 µM) 0.22%; (second compound 10 µM, first compound 0.0316 µM) 0.42%; (second compound 10 µM, first compound 0.1 µM) 0.34%.
As for `CC1COCCN1c1cc(C2(S(C)(=N)=O)CC2)nc(-c2ccnc3[nH]ccc23)n1` (configuration not stated), the viability, T/C (compound 0.0316 µM) is 86% and 97.4%; the viability, T/C (compound 0.1 µM) was 92.5% and 98.9%; the viability, T/C (compound 0.316 µM) was 75.2% and 90.7%; the viability, T/C (compound 1 µM) was 65.8% and 86.7%; the viability, T/C (compound 3.16 µM) is 49.3% and 53.9%; the viability, T/C (compound 10 µM) is 63.4% and 54.3%. The IC50 (curve of compound) was greater than 10 µM.
On to `NS(=O)(=O)OCC1CC(n2ccc3c(NC4CCc5ccccc54)ncnc32)CC1O` (configuration not stated), for which the viability, T/C is 106% and 87.5% (compound 0.00949 µM); 58.4% and 62.6% (compound 0.03 µM); 35.3% and 33.8% (compound 0.0949 µM); 12.7% and 6.06% (compound 0.3 µM); 7.91% and 3.62% (compound 0.949 µM); 6.79% and 2.48% (compound 3 µM). In addition, under “curve of compound”, the half-maximal inhibitory concentration (IC50) was 0.0449 µM and 0.0491 µM.
With `O=C(C=Cn1cnc(-c2cc(C(F)(F)F)cc(C(F)(F)F)c2)n1)NNc1cnccn1`, the viability, T/C by setting is: (compound 0.00316 µM) 102% and 76.2%; (compound 0.01 µM) 106% and 79.7%; (compound 0.0316 µM) 98.9% and 61.4%; (compound 0.1 µM) 54.3% and 71.6%; (compound 0.316 µM) 46.3% and 88.5%; (compound 1 µM) 11.6% and 62%. The IC50 (curve of compound) was 0.192 µM and > 1 µM.
On to `CC1(C)CCC(CN2CCN(c3ccc(C(=O)NS(=O)(=O)c4ccc(NCC5CCOCC5)c([N+](=O)[O-])c4)c(Oc4cnc5[nH]ccc5c4)c3)CC2)=C(c2ccc(Cl)cc2)C1`, for which the viability, T/C is 96.6% and 90.8% (compound 0.0316 µM); 93.2% and 96.6% (compound 0.1 µM); 118% and 99.7% (compound 0.316 µM); 112% and 93.5% (compound 1 µM); 120% and 40.8% (compound 3.16 µM). For the same compound, for the setting “curve of compound”, the IC50 was > 10 µM and 2.59 µM.
For `Nc1ccn(C2OC(CO)C(O)C2(F)F)c(=O)n1` (configuration not stated), the viability, T/C is, setting by setting: (compound 0.000949 µM) 69.7% and 82.2%; (compound 0.003 µM) 36.4% and 84.6%; (compound 0.00949 µM) 40.4% and 80.5%; (compound 0.03 µM) 26.6% and 68.5%; (compound 0.0949 µM) 31% and 48.6%; (compound 0.3 µM) 54.3% and 46.2%.
